Values of other authors, collected in paper PMC9610729, “Anticholinesterase Activity of Selected Medicinal Plants from Navarra Region of Spain and a Detailed Phytochemical Investigation of Origanum vulgare L. ssp. vulgare” (Molecules, 2022).
Where two headings read alike, the source gives them in different places.

What was measured:
[1] = test system: AChE; parameters: method as in PMID 35745206
[2] = test system: AChE

COc1cc(C(=O)O)cc(OC)c1O [Compound 7, Syringic acid]
AChE inhibition [1]: high inhibition percentage

O=c1c(O)c(-c2ccc(O)cc2)oc2cc(O)cc(O)c12 [kaempferol]
AChE inhibition [2]: efficient AChE inhibitors

O=c1cc(-c2ccc(O)c(O)c2)oc2cc(O)cc(O)c12 [luteolin]
AChE inhibition [2]: to a lesser extent

COC(=O)c1cc(OC)c(O)c(OC)c1 [methyl syringinate]
AChE inhibition [1]: best properties

O=c1c(O)c(-c2ccc(O)c(O)c2)oc2cc(O)cc(O)c12 [quercetin]
AChE inhibition [2]: efficient AChE inhibitors
